{
  "source": "patent US20210052741A1",
  "about": "“GENE THERAPY METHODS AND COMPOSITIONS USING AUXOTROPHIC REGULATABLE CELLS” (AUXOLYTIC LTD, priority 2018, published 2021)",
  "format_in_all_cases": "cell-based, human",
  "key": {"[1]": {"test_system": "UMPS^KO/KO T cells mixed with wild-type T cells", "test": "5-FOA selection in mixed T cell population", "description": "To evaluate the possibility to select for UMPS^KO/KO cells with 5-FOA, the sorted cells were mixed with wild-type cells, which were labeled with different tracking dyes, and cultured in the presence or absence of 5-FOA. In part of the samples, 5-FOA was only added on the first day (Day 0) while in another group it was supplemented daily. Table 30 and FIG. 7C show the percent (%) of the UMPS-KO T cells (labelled with eFluor670) over time when culturing with or without 5-FOA.\nIn fact, FACS analysis of a culture of a mixed population of UMPS knockout and wild-type T cells with 5-FOA. UMPS-KO T cells were labeled with eFluor670, and wild-type cells were labeled with carboxyfluorescein succinimidyl ester (CFSE). […] On Day 0 in the control group not treated with 5-FOA, 47.7% of the cells were UMPS-KO T cells, and 52.1% were wild-type cells. On Day 3 in the group with 5-FOA supplemented daily, 74.0% of the cells were UMPS-KO T cells, while 25.8% were wild-type cells. On Day 3 in the control group not treated with 5-FOA, 43.1% of the cells were UMPS-KO T cells, and 56.4% were wild-type cells."}, "UMPS edited T cells": {"test_system": "UMPS edited T cells", "test": "TIDE analysis of UMPS InDels in mixed UMPS edited population", "description": "Sanger sequencing of the UMPS locus was performed using UMPS-O-1 and UMPS-O-2, with the region amplified using PHUSION™ Hot Start Flex 2x Master Mix (New England Biolabs, Inc.). Sanger sequencing traces were analyzed by TIDE analysis (see, Brinkman et al, 2014, Nucleic Acids Res. 42(22):e168), which is hereby incorporated by reference in its entirety) to identify insertions and deletions (InDels) after editing. InDel quantification was performed on the sequences using the TIDE online tool (www.deskgen.com/landing/tide.html) (See, M. Sadelain, N. Engl. J. Med. 365, 1735-7 (2011), which is hereby incorporated by reference in its entirety.\nT Cells were electroporated and edited as in Example 2 and allowed to recover for a 4-day period in medium with serum, uridine, and UMP. On day 4, cells were shifted to UMP, uridine, or uracil source media. […]\nTo confirm the results on the genomic level, genomic DNA was harvested at the end of the experiment and InDels were quantified (FIG. 5D-FIG. 5E). FIG. 5D compares the frequency of InDels in different culture conditions for cells not exposed to 5-FOA."}, "UMPS^KO/KO hESCs": {"test_system": "UMPS^KO/KO hESCs", "test": "Auxotrophy assay with different uridine concentrations", "details": "for Viable cell counts: day 4 after seeding", "description": "The UMPS locus was disrupted in the hESCs by electroporation of Cas9 RNP and selection of a clone with InDels in exon 1 as evaluated by amplification and Sanger sequencing of the genomic locus. For gene editing, hESCs were treated with 10 μm ROCK inhibitor (Y-27632) for 24 hours before electroporation. Cells at 70-80% confluence were harvested with ACCUTASE® solution (Life Technologies). 500,000 cells were used per reaction with a SpCas9 concentration of 150 μg/mL (Integrated DNA Technologies) and a Cas9:sgRNA molar ratio of 1:3 and electroporation performed in P3 Primary Cell solution (Lonza) in 16-well NUCLEOCUVETTE™ Strips in the 4D NUCLEOFECTOR system (Lonza). Immediately after electroporation, cells were transferred into one well of a […]® protein mixture (Corning, Inc.)-coated 24 well plate containing 500 μl of mTeSR™ media ([…] Technologies) with 10 μM Y-27632. Media was changed 24 hours after editing and Y-27632 was removed 48 hours after.\nAn auxotrophy assay was performed over four days with different concentrations of uridine. Microscope photos of wells were taken on day 4 after seeding UMPS^KO/KO hESCs at similar densities and culturing in the presence of different uridine concentrations. […] Quantification of viable cells on day 4 after seeding to evaluate the effect of different uridine concentrations is shown in Table 15."}, "UMPS KO T cells": {"test_system": "UMPS KO T cells", "test": "Auxotrophy assay in sorted T cells", "details": "for Relative viability on Day 4 (%) / Viable cells per ml: UMPS KO", "description": "(§1) These T cells were also subjected to an auxotrophy assay and the possibility to select these cells with 5-FOA was tested. […] Higher Uridine concentrations led to higher proliferation rates. Auxotrophic growth of UMPS KO or wild-type (WT) T cells is shown in FIG. 7B and Table 28."}, "WT T cells": {"test_system": "WT T cells", "test": "Auxotrophy assay in sorted T cells", "details": "for Viable cells per ml: Anti-CD3/-CD28 beads", "description": "as §1"}, "[2]": {"details": "cells not exposed to 5-FOA, end of experiment, metabolite 250 μg/ml"}},
  "note": "Values joined by “and” are separate entries in the source; they are usually repeats but may differ in a detail not shown here. Equal values may be shown once.",
  "data": [
    {"smiles": "O=C(O)c1[nH]c(=O)[nH]c(=O)c1F", "note": "[5-FOA, 5-fluoroorotic acid]", "values": [
      {"measurement": "Percent of UMPS^KO/KO cells in mixed cell population, Day 0", "setting": "[1]; 5-FOA Day 0 only", "value": "43.7% and 43.2%"},
      {"measurement": "Percent of UMPS^KO/KO cells in mixed cell population, Day 1", "setting": "[1]; 5-FOA Day 0 only", "value": "59.2% and 55.6% and 50.8%"},
      {"measurement": "Percent of UMPS^KO/KO cells in mixed cell population, Day 3", "setting": "[1]; 5-FOA Day 0 only", "value": "67.2% and 68.6% and 67.8%"},
      {"measurement": "Percent of UMPS^KO/KO cells in mixed cell population, Day 0", "setting": "[1]; 5-FOA daily", "value": 43.2, "unit": "%"},
      {"measurement": "Percent of UMPS^KO/KO cells in mixed cell population, Day 1", "setting": "[1]; 5-FOA daily", "value": "58.5% and 55.4% and 54.5%"},
      {"measurement": "Percent of UMPS^KO/KO cells in mixed cell population, Day 3", "setting": "[1]; 5-FOA daily", "value": "70.7% and 69.2%"},
      {"measurement": "percent wild-type cells in mixed population, Day 0", "setting": "[1]; 5-FOA only on the first day (Day 0), FACS", "value": 56.0, "unit": "%"},
      {"measurement": "percent wild-type cells in mixed population, Day 3", "setting": "[1]; 5-FOA supplemented daily, FACS", "value": 25.8, "unit": "%"},
      {"measurement": "percent of UMPS-KO T cells, treated vs untreated group", "setting": "[1]; unpaired t test", "value": "significant increase in the percent of UMPS-KO T cells"}
    ]},
    {"smiles": "O=c1ccn([C@@H]2O[C@H](CO)[C@@H](O)[C@H]2O)c(=O)[nH]1", "note": "[Uridine]", "values": [
      {"measurement": "Alleles with frameshift InDels, Percent of alleles (without 5-FOA)", "setting": "UMPS edited T cells; TIDE, day 8, metabolite 250 μg/ml", "value": 52.5, "unit": "%"},
      {"measurement": "Alleles with InDels, Percent of alleles (without 5-FOA)", "setting": "UMPS edited T cells; TIDE, metabolite 250 μg/ml", "value": 77.0, "unit": "%"},
      {"measurement": "frameshift InDel frequency, Percent", "setting": "UMPS edited T cells; [2]", "value": 52.5, "unit": "%"},
      {"measurement": "overall InDel frequency, Percent (%)", "setting": "UMPS edited T cells; [2]", "value": 77.0, "unit": "%"},
      {"measurement": "Predicted viable cell counts, Cells with In-frame InDel", "setting": "UMPS edited T cells; day 8, metabolite 250 μg/ml", "value": 777000},
      {"measurement": "Predicted viable cell counts, Cells with frameshift InDel", "setting": "UMPS edited T cells; day 8, metabolite 250 μg/ml", "value": 1660000},
      {"measurement": "Predicted viable cell counts, Cells without InDel", "setting": "UMPS edited T cells; day 8, metabolite 250 μg/ml", "value": 729100},
      {"measurement": "proliferation (microscope photos, day 4)", "setting": "UMPS^KO/KO hESCs; 2.5-250 μg/ml uridine", "value": "proliferated"},
      {"measurement": "Viable cell counts", "setting": "UMPS^KO/KO hESCs; uridine 2.5 μg/ml", "value": "31040 and 38065 and 45189"},
      {"measurement": "Viable cell counts", "setting": "UMPS^KO/KO hESCs; uridine 25 μg/ml", "value": "31810 and 39635 and 36283"},
      {"measurement": "Viable cell counts", "setting": "UMPS^KO/KO hESCs; uridine 250 μg/ml", "value": "19147 and 31050 and 33955"},
      {"measurement": "proliferation", "setting": "UMPS KO T cells; Anti-CD3/-CD28 beads, different Uridine concentrations", "value": "proliferated only in the presence of Uridine"},
      {"measurement": "Relative viability on Day 4 (%)", "setting": "UMPS KO T cells; 2.5 μg/ml Uridine", "value": "78.78 and 79.28 and 79.74"},
      {"measurement": "Viable cells per ml", "setting": "UMPS KO T cells; 2.5 μg/ml uridine, Anti-CD3/-CD28 beads", "value": "226596 cells per ml and 217594 cells per ml and 224448 cells per ml"},
      {"measurement": "Relative viability on Day 4 (%)", "setting": "UMPS KO T cells; 25 μg/ml Uridine", "value": "82.16 and 81.57 and 83.09"},
      {"measurement": "Viable cells per ml", "setting": "UMPS KO T cells; 25 μg/ml uridine, Anti-CD3/-CD28 beads", "value": "282368 cells per ml and 268684 cells per ml and 304864 cells per ml"},
      {"measurement": "Relative viability on Day 4 (%)", "setting": "UMPS KO T cells; 250 μg/ml Uridine", "value": "85.66 and 85.29 and 84.38"},
      {"measurement": "Viable cells per ml", "setting": "UMPS KO T cells; 250 μg/ml uridine, Anti-CD3/-CD28 beads", "value": "319120 cells per ml and 345862 cells per ml and 348022 cells per ml"},
      {"measurement": "Relative viability of the cell population on Day 4", "setting": "WT T cells; 2.5 μg/ml Uridine", "value": "84.64 and 82.19 and 80.45"},
      {"measurement": "Viable cells per ml", "setting": "WT T cells; 2.5 μg/ml uridine", "value": "486192 cells per ml and 362626 cells per ml and 364194 cells per ml"},
      {"measurement": "Relative viability of the cell population on Day 4", "setting": "WT T cells; 25 μg/ml Uridine", "value": "83.91 and 83.40 and 79.66"},
      {"measurement": "Viable cells per ml", "setting": "WT T cells; 25 μg/ml uridine", "value": "384503 cells per ml and 410116 cells per ml and 338547 cells per ml"},
      {"measurement": "Relative viability of the cell population on Day 4", "setting": "WT T cells; 250 μg/ml Uridine", "value": "86.05 and 86.97 and 87.62"},
      {"measurement": "Viable cells per ml", "setting": "WT T cells; 250 μg/ml uridine", "value": "609575 cells per ml and 412493 cells per ml and 468354 cells per ml"}
    ]}
  ]
}
